Assay results from patent US7923465B2, “Cannabinoid receptor ligands, pharmaceutical compositions containing them, and process for their preparation” (priority 2005, dated 2011).
Like-named read-outs stand apart in the source and are kept apart here.

What was measured:
[1] = target: T1, CB1 (Rattus norvegicus, UniProt P20272); assay: GTPγS binding assay, CB1 functional assay in rat cerebellar membrane (Protocol VIII); assay type: biochemical; design: 10 μg rat cerebellum membrane; from tissue; host or cells: rat cerebellum membrane, prepared in-house
T1 sequence (P20272 whole entry): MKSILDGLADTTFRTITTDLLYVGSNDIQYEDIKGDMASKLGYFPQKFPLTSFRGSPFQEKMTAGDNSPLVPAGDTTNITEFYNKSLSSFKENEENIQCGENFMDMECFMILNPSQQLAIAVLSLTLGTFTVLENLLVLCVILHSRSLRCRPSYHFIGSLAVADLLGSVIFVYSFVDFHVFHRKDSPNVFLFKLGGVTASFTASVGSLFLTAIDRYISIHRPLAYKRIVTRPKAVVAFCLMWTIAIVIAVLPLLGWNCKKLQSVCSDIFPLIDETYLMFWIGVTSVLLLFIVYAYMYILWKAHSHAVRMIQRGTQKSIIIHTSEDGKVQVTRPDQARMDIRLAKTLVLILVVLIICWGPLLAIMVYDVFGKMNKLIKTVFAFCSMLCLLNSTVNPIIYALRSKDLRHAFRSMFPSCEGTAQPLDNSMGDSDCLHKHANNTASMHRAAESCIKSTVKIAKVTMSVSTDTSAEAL
How it was run: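 Rat cerebellar membranes (10 μg) incubated 1 h at 30 °C with 0.2 nM [35S]GTPγS, 50 μM GDP, and compound at 1 μM or 300 nM, alone or with 1 μM WIN 55,212-2, in Tris/MgCl2/EGTA/NaCl pH 7.4. Filter-bound radioactivity counted; percent stimulation calculated against basal specific binding (nonspecific defined by 10 μM GTPγS).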

[2] = target: T2, hCB1 (Homo sapiens, UniProt P21554); assay: Antagonism of CB1 receptors expressed in CHO cells, cAMP assay against CP 55,940 (Protocol IX.1); assay type: cell-based; design: expressed in transfected cells; host or cells: CHO (h-CB1/CHO, G418-selected); settings: at 10 uM, h-CB1/CHO cells, cAMP, vs 30 nM CP 55,940; read-out: hCB1 Antagonism
T2 sequence (P21554 whole entry): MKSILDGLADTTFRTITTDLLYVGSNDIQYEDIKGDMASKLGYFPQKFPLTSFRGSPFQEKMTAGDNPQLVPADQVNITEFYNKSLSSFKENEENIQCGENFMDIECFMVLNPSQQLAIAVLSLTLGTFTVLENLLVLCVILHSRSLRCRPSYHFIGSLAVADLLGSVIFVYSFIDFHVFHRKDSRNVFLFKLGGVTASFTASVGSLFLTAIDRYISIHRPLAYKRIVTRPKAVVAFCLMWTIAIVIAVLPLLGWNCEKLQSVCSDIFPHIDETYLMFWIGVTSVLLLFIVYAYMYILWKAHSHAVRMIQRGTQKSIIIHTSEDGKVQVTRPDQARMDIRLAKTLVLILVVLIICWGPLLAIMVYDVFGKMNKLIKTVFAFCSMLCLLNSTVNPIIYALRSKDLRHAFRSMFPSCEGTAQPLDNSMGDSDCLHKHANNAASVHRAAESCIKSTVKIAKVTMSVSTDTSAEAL
Experimental: (§1) IX. Assay for Determining Agonist and Antagonist Activity to CB1 and CB2 Receptors
(§2) 1. Antagonism of CB1/CB2 Receptors Expressed in CHO Cells.
(§3) h-CB1/CHO or h-CB2/CHO cells were grown in HAM's F12 DMEM medium (Sigma) with 10% FBS (Hyclone), 1% penicillin-streptomycin solution and 400 μg/ml of G418 (Sigma). 5000 cells were seeded per well in a 96 well plate and incubated for 24 hours at 37° C. in 5% CO2. On the day of assay, cells were washed with warm Krebs buffer containing 0.1% fatty acid free (FAF) BSA (Sigma) and re-suspended in the same buffer containing 1 mM IBMX. […] At the end of incubation, cells were lysed using lysis reagent from the cAMP estimation kit and cAMP was quantitated by the chemiluminescence method described in the manufacturer's instructions (DiscoveRX). EC50 values were calculated from dose response curves by nonlinear regression analysis using PRISM software.

[3] = target: T1, CB1; assay: Rat CB1 receptor binding using brain membrane, [3H]SR141716A displacement (Protocol I); design: CB1 receptor present in a rat brain membrane preparation; from tissue; host or cells: rat brain membrane; inhibition: dose or concentration left out as unconfirmed; settings: 1 h; rat brain membrane, [3H]SR141716A displacement; read-out: % Displacement Protocol I
[4] = target: T2, hCB1; assay: Agonism of CB1 receptors expressed in CHO cells, forskolin cAMP assay (Protocol IX.2); assay type: cell-based; design: expressed in transfected cells; host or cells: CHO (h-CB1/CHO, G418-selected); settings: CHO, at 10 uM, h-CB1/CHO cells, cAMP
Experimental: as §1
(§4) 2. Agonism of CB1/CB2 Receptors Expressed in CHO Cells
as §3, with “Krebs Buffer” for “Krebs buffer”, “by” for “by the”

[5] = target: T3, hCB2 (Homo sapiens, UniProt P34972); assay: Agonism of CB2 receptors expressed in CHO cells, forskolin cAMP assay (Protocol IX.2); assay type: cell-based; design: expressed in transfected cells; host or cells: CHO (h-CB2/CHO, G418-selected); settings: for IC50: hCB2 Agonism IC50, h-CB2/CHO cells
T3 sequence (P34972 whole entry): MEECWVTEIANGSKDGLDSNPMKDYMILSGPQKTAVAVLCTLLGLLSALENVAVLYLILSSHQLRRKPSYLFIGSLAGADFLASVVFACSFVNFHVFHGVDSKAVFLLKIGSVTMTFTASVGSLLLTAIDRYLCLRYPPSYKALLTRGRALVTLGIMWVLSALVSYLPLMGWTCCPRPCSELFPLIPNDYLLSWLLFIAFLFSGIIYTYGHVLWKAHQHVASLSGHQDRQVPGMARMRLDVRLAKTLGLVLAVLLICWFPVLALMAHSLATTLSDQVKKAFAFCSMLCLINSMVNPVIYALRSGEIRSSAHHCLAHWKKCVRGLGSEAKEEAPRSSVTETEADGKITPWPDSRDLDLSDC
Experimental: as §1, §4
h-CB1/CHO or h-CB2/CHO cells were grown in HAM's F12 DMEM medium (Sigma) with 10% FBS (Hyclone), 1% penicillin-streptomycin solution and 400 μg/ml of G418 (Sigma). 5000 cells were seeded per well in a 96 well plate and incubated for 24 hours at 37° C. in 5% CO2. On the day of assay, cells were washed with warm Krebs Buffer containing 0.1% fatty acid free (FAF) BSA (Sigma) and re-suspended in the same buffer containing 1 mM IBMX. Test compound or CP 55,940 as a reference compound (30 nM final concentration for CB1 testing and 10 μM of the same for CB2 testing) diluted in FFB+IBMX+Krebs buffer was added to the cells followed by forskolin addition (10 uM final concentration) and incubated for 30 minutes at room temperature. At the end of incubation, cells were lysed using lysis reagent from the cAMP estimation kit and cAMP was quantitated by chemiluminescence method described in the manufacturer's instructions (DiscoveRX). EC50 values were calculated from dose response curves by nonlinear regression analysis using PRISM software.

[6] = target: T3, hCB2; assay: In vitro binding assay using hCB2-CHO membranes, [3H]-CP-55,940 displacement (Protocol IV); design: expressed in transfected cells; host or cells: CHO (hCB2-CHO, generated in-house); settings: 1 h, read-out: % Displacement Protocol IV
How it was run: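 Compounds were tested at a single 300 nM final concentration for displacing 0.75 nM [3H]-CP-55,940 from hCB2-CHO membranes (1 h, 30 °C, 50 mM Tris pH 7.4, 5 mM MgCl2, 1 mM EDTA, 0.1% BSA). Filter-bound radioactivity was counted, with 0.5 μM unlabelled CP-55,940 for nonspecific binding; results are % displacement.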

[7] = target: T3, hCB2; assay: Antagonism of CB2 receptors expressed in CHO cells, cAMP assay against CP 55,940 (Protocol IX.1); assay type: cell-based; design: expressed in transfected cells; host or cells: CHO (h-CB2/CHO, G418-selected); settings: CHO, h-CB2/CHO cells, vs 10 nM CP 55,940
Experimental: as §1, §2
h-CB1/CHO or h-CB2/CHO cells were grown in HAM's F12 DMEM medium (Sigma) with 10% FBS (Hyclone), 1% penicillin-streptomycin solution and 400 μg/ml of G418 (Sigma). 5000 cells were seeded per well in a 96 well plate and incubated for 24 hours at 37° C. in 5% CO2. On the day of assay, cells were washed with warm Krebs buffer containing 0.1% fatty acid free (FAF) BSA (Sigma) and re-suspended in the same buffer containing 1 mM IBMX. Test antagonist or reference compound (AM 251 (1-(2,4-dichlorophenyl)-5-(4-iodophenyl)-4-methyl-N-(1-piperidyl)pyrazole-3-carboxamide) for CB1 and SR144528 for CB2) diluted in FAFBSA+IBMX+Krebs buffer was added to the cells and incubated for 10 minutes at room temperature. CP 55,940 (30 nM final concentration for CB1 testing and 10 nM of the same for CB2 testing) was added to cells followed by forskolin (10 μM final concentration) and incubated for 30 minutes at room temperature. At the end of incubation, cells were lysed using lysis reagent from the cAMP estimation kit and cAMP was quantitated by the chemiluminescence method described in the manufacturer's instructions (DiscoveRX). EC50 values were calculated from dose response curves by nonlinear regression analysis using PRISM software.

[8] = hCB2-CHO membranes, [3H]-CP-55,940 displacement
[9] = at 10 uM, h-CB2/CHO cells, cAMP

SMILES | melting point [°C] | activation at 0.3 µM ([1]; 1 h, GTPγS binding over basal, rat cerebellar membrane, tested at 300 nM, read-out: Per Se % Stimulation) [%] | inhibition at 0.3 µM ([1]; GTPγS binding, tested at 300 nM in presence of 1 μM WIN 55,212-2, read-out: % Inhibition of WIN-55212-2 induced stimulation) [%] | inhibition at 10 µM [2] [%] | inhibition [3] [%] | activation at 10 µM [4] [%] | hCB2 Agonism ([5]; bare number, no unit or concentration given) | inhibition at 0.3 µM [6, 8] [%] | IC50 ([5]; cAMP) [nM] | inhibition at 10 µM [7] [%] | activation at 1 µM ([1]; 1 h, GTPγS binding over basal, rat cerebellar membrane, tested at 1 uM, read-out: Per Se % Stimulation) [%] | inhibition at 1 µM ([1]; GTPγS binding, tested at 1 uM in presence of 1 μM WIN 55,212-2, read-out: % Inhibition of WIN-55212-2 induced stimulation) [%] | hCB2 Agonism [5, 9] | inhibition at 0.3 µM [6] [%]
O=C(NNc1ncccc1Cl)c1nn(-c2ccc(Cl)cc2)c2c1C1CC3CC(C1)CC2C3 [Example 134, N(7)-(3-Chloro-2-pyridylamino)-5-(4-chlorophenyl)-5,6-diazatetracyclo[7.3.1.1^3,11.0^4,8]tetradeca-4(8),6-diene-7-carboxamide] | 200 to 203 | -6 | 58.1 | 17.5 | 89.6 | 75.6 | – | – | – | – | – | – | – | –
O=C(NCc1ccccc1Cl)c1nn(-c2ccc(F)cc2F)c2c1C1CC3CC(C1)CC2C3 [Example 149, N(7)-(2-Chlorobenzyl)-5-(2,4-difluorophenyl)-5,6-diazatetracyclo[7.3.1.1^3,11.0^4,8]tetradeca-4(8),6-diene-7-carboxamide] | 136 | – | – | 16 | – | 79.9 | – | – | – | – | – | – | – | –
O=C(NNc1ccc(Cl)cc1Cl)c1nn(-c2ccc(F)cc2F)c2c1C1CC3CC(C1)CC2C3 [Example 150, N(7)-(2,4-Dichlorophenylamino)-5-(2,4-difluorophenyl)-5,6-diazatetracyclo[7.3.1.1^3,11.0^4,8]tetradeca-4(8),6-diene-7-carboxamide] | 162 | – | – | 42.9 | – | 61.1 | – | – | – | – | – | – | – | –
O=C(NC1CCCCC1)c1nn(-c2ccccc2)c2c1C1CCC2C1 (stereo not shown) [Example 202, N(3)-Cyclohexyl-1-phenyl-4,5,6,7-tetrahydro-1H-4,7-methano-indazole-3-carboxamide] | 107 | – | – | 0 | 28.2 | 0 | 16.79 | 70.1 | – | – | – | – | – | –
O=C(NC1CCCCC1)c1nn(-c2ccccc2Cl)c2c1C1CCC2C1 (stereo not shown) [Example 206, N(3)-Cyclohexyl-1-(2-chlorophenyl)-4,5,6,7-tetrahydro-1H-4,7-methano-indazole-3-carboxamide] | 171 | – | – | – | 27.4 | – | – | 71.9 | 10.5 | 16 | – | – | – | –
O=C(NCc1ccc(Cl)cc1Cl)c1nn(-c2ccc(Cl)cc2)c2c1C1CCC2C1 (stereo not shown) [Example 223, N(3)-(2,4-Dichlorobenzyl)-1-(4-chlorophenyl)-4,5,6,7-tetrahydro-1H-4,7-methano-indazole-3-carboxamide] | 108 to 111 | – | – | 0 | 52.1 | – | – | 59.5 | 1.49 | 24.4 | – | – | – | –
O=C(NCC1CCCCC1)c1nn(-c2ccc(Cl)cc2Cl)c2c1C1CCC2C1 (stereo not shown) [Example 238, N(3)-Cyclohexylmethyl-1-(2,4-dichlorophenyl)-4,5,6,7-tetrahydro-1H-4,7-methano-indazole-3-carboxamide] | 111 to 113 | – | – | – | 73.9 | – | – | – | – | 24.5 | 0.4 | 59.1 | 55.05% at | –
O=C(NN(C1CCCCC1)C1CCCCC1)c1nn(-c2ccc(Cl)cc2Cl)c2c1C1CCC2C1 (stereo not shown) [Example 239, N(3)-(N,N-Dicyclohexylamino)-1-(2,4-dichlorophenyl)-4,5,6,7-tetrahydro-1H-4,7-methano-indazole-3-carboxamide] | 127 to 130 | – | – | – | 23.5 | – | – | 77.1 | 42.5 | 64.1 | – | – | – | –
O=C(NNc1ccc(F)cc1F)c1nn(-c2ccc(Cl)cc2Cl)c2c1C1CCC2C1 (stereo not shown) [Example 265, N(3)-[(2,4-Difluorophenyl)amino]-1-(2,4-dichlorophenyl)-4,5,6,7-tetrahydro-1H-4,7-methano-indazole-3-carboxamide] | 157 to 160 | – | – | – | 31.6 | – | – | 70.2 | 23.1 | 27.2 | – | – | – | –
O=C(NC12CC3CC(CC(C3)C1)C2)c1nn(-c2ccc(Cl)cc2Cl)c2c1C1CCC2c2ccccc21 (stereo not shown) [Example 506, N(12)-(Adamantan-1yl)-10-(2,4-dichlorophenyl)-10,11-diazatetracyclo[6.5.2.0^2,7.0^9,13]pentadeca-2,4,6,9(13),11-pentaene-12-carboxamide] | 120 to 124 | – | – | – | – | – | – | – | – | 80.2 | – | – | 0% at 10 uM | 52.4
